Patent publication US20100227853A1, “INHIBITORS OF CYCLIC AMP PHOSPHODIESTERASES” (Trustees of Boston College, priority 2008, published 2010)
Entries after “also recorded” stand apart in the source; their conditions may differ. Each block holds one molecule with its values, some of them ahead of it.

Key:
PDE4D3 = target: T1, PDE4D3 (Homo sapiens, UniProt Q08499); test: 5FOA growth assay in fission yeast strain expressing PDE4D3; format: cell-based; settings: for EC50: OD600 0.6, read-out: ED50 for 5FOA growth assays, PDE4D3
T1 construct: targets used in the assays are full-length proteins (as opposed to simply the catalytic domain); expressed in transfected cells; host or cells: Schizosaccharomyces pombe, PDE gene integrated in place of cgs2
T1 sequence (Q08499 1-673 isoform Q08499-2): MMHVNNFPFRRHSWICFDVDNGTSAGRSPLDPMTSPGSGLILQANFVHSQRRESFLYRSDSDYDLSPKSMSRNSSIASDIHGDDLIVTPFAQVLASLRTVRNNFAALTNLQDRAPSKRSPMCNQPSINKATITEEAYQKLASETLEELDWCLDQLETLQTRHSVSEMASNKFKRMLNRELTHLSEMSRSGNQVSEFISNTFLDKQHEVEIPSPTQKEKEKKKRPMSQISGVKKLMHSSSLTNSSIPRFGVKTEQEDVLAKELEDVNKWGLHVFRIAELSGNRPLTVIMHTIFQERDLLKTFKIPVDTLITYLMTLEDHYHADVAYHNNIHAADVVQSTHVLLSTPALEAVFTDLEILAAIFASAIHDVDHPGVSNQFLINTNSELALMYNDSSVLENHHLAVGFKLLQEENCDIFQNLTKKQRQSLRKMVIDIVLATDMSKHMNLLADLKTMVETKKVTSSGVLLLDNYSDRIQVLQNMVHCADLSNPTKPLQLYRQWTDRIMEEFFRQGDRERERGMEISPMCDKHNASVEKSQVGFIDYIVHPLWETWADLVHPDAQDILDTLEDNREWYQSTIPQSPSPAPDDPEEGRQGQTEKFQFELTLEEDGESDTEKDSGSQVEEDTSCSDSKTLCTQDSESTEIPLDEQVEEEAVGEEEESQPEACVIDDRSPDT
Experimental: Cells were pregrown in EMM medium [MP Biomedicals (Solon, Ohio), 3% glucose, filter-sterilized to avoid carmelization, which would introduce variability into the optical density of the medium] containing from 0 mM to 2.5 mM cAMP (or either 0.5 mM or 1.0 mM cGMP). This was to repress expression of the fbp1-ura4 reporter prior to exposure of cells to 5FOA medium. Cells were grown at 30° C. to exponential phase (approximately 10^7 cells/ml). […] Starting cell concentrations ranged from 0.5×10^5 to 4×10^5 cells/ml depending on the screening strain. […] Other positive control dishes contained 5 mM cAMP in the 5FOA medium for PDEs that lack appropriate control compounds. Cultures were grown for 48 hours at 30° C., sealed in an airtight container with moist paper towels to prevent evaporation. Optical densities (OD600) of cultures were measured using a microplate reader. Bioinformatic analysis of the results to determine composite Z scores was performed as previously described (1, 3).

[1] = tested on: PDE4A, PDE4B, PDE4D, PDE7A, PDE7B, PDE8A, PDE3A; test: Summary of PDE inhibitor profile; design: key to inhibitor class, Table 15: (1): Strong PDE4A5 inhibitor; (2): Strong PDE4A, 4B inhibitor; Moderate PDE4D inhibitor; (3): Strong PDE4A. 4B inhibitor; (4): Strong PDE4A, 4B, PDE7A inhibitor: Weak PDE4D inhibitor; key to inhibitor class, Table 16: (1): Weak PDE7A inhibitor; (2): Strong PDE7A inhibitor; (3): Lillte/no activity under conditions used; (4): Weak PDE4A inhibitor
PDE4A5 = target: T2, PDE4A5 (Rattus norvegicus, UniProt P54748); test: 5FOA growth assay in fission yeast strain expressing PDE4A5; format: cell-based; settings: for Composite Z score, PDE4A5: high throughput 5FOA growth screen
T2 construct: targets used in the assays are full-length proteins (as opposed to simply the catalytic domain); expressed in transfected cells; host or cells: Schizosaccharomyces pombe, PDE gene integrated in place of cgs2
T2 sequence (P54748 1-844): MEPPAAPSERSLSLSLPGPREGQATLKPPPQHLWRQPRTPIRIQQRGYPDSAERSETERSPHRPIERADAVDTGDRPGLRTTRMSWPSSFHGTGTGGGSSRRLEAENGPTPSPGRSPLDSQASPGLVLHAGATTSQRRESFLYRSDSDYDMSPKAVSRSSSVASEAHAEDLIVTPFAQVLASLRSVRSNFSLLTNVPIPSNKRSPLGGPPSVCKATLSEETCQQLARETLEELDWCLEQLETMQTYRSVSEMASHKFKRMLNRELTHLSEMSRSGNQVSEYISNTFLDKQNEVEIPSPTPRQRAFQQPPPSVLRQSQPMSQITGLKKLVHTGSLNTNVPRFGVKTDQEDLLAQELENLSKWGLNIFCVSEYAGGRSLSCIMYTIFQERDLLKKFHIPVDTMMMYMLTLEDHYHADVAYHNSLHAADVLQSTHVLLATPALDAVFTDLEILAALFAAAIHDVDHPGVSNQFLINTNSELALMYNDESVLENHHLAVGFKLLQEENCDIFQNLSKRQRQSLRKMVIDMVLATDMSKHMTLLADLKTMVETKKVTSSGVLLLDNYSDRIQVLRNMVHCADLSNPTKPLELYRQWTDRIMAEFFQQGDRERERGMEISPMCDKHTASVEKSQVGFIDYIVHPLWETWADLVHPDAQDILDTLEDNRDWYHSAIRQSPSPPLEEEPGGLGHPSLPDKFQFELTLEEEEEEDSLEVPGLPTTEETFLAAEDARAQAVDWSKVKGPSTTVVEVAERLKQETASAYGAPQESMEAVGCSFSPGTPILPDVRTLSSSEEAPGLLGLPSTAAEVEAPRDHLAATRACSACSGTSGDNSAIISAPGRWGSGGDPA
Experimental: High throughput drug screens were carried out at the Broad Institute's Chemical Biology Program screening facility (Broad Institute, Cambridge, Mass.). Depending upon the strain, cultures were pregrown to exponential phase in EMM complete medium containing from 0.5 to 2.5 mM cAMP to repress fbp1-ura4 transcription. Cells were collected by centrifugation, resuspended in 5FOA medium, and 25 μl were transferred to 384-well microtiter dishes (untreated, with flat clear bottoms) that had been pre-filled with 25 μl 5FOA medium and pre-pinned with 100 nl of compounds (stock solutions were generally 10 mM) from a subset of the Prestwick Bioactive and the Microsource Spectrum compound libraries. Starting cell concentrations ranged from 0.5×10^5 to 4×10^5 cells/ml depending on the screening strain. […] Other positive control dishes contained 5 mM cAMP in the 5FOA medium. Cultures were grown for 48 hours at 30° C., sealed in an airtight container with moist paper towels to prevent evaporation. Optical densities (OD600) of cultures were measured using a microplate reader. Bioinformatic analysis of the results to determine composite Z scores was performed as previously described^30, 31.
Cells were pregrown in EMM medium [MP Biomedicals (Solon, Ohio), 3% glucose, filter-sterilized to avoid carmelization, which would introduce variability into the optical density of the medium] containing from 0 mM to 2.5 mM cAMP (or either 0.5 mM or 1.0 mM cGMP). This was to repress expression of the fbp1-ura4 reporter prior to exposure of cells to 5FOA medium. Cells were grown at 30° C. to exponential phase (approximately 10^7 cells/ml). Cells were collected by centrifugation and resuspended in 5FOA medium, and 25 μl were transferred to 384-well microtiter dishes (untreated, with flat clear bottoms) that had been pre-filled with 25 μl 5FOA medium and pre-pinned with 100 nl of compounds (stock solutions were generally 10 mM). Starting cell concentrations ranged from 0.5×10^5 to 4×10^5 cells/ml depending on the screening strain. […] Other positive control dishes contained 5 mM cAMP in the 5FOA medium for PDEs that lack appropriate control compounds. Cultures were grown for 48 hours at 30° C., sealed in an airtight container with moist paper towels to prevent evaporation. Optical densities (OD600) of cultures were measured using a microplate reader. Bioinformatic analysis of the results to determine composite Z scores was performed as previously described (1, 3).

U937 cells = test: TNF alpha release by LPS-treated U937 cells; format: cell-based; settings: for TNF alpha, % vehicle control: 10 uM cmpd, 0 uM BC30
PDE4D2 = target: T3, PDE4D2 (Homo sapiens, UniProt Q08499); test: cAMP response in yeast strain expressing PDE4D2; format: cell-based
T3 construct: targets used in the assays are full-length proteins (as opposed to simply the catalytic domain); expressed in transfected cells; host or cells: Schizosaccharomyces pombe
T3 sequence (Q08499 303-809): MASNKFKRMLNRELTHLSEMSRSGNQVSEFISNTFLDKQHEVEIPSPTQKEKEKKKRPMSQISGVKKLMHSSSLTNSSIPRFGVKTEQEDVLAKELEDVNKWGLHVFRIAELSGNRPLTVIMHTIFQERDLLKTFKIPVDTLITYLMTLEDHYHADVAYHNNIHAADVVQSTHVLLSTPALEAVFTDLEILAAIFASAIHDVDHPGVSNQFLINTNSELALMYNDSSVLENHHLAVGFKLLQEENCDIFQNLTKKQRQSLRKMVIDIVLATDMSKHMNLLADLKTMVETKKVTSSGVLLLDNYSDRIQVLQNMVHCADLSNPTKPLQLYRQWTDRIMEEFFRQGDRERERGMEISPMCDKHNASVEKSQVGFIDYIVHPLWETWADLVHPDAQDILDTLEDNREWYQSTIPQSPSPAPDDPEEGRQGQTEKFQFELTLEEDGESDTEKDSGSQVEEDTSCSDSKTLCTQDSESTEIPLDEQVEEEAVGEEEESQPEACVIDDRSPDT

EC50 (PDE4D3): > 200 µM
SMILES: Cc1sc2ncnc(Nc3ccccc3)c2c1C [BC64]
PDE inhibitor profile, in words [1]: moderate PDE7 inhibitor

Composite Z score, PDE4A5 (PDE4A5): 154.72
SMILES: Cc1c(C(=O)Nc2ccc(F)cc2F)sc2ncnc(N3CCC(C)CC3)c12 [BC58]
TNF alpha reduction, conclusion in words (U937 cells): good PDE4 inhibitor activity | PDE inhibitor profile, in words [1]: effective PDE4A/4B inhibitor that exhibits limited/essentially no inhibition of PDE4D; also recorded: PDE4A/4B-specific inhibitor

Composite Z score, PDE4A5 (PDE4A5): 36.026 | EC50 (PDE4D3): 33 µM
SMILES: CCC1CCc2c(sc3ncnc(N4CCOCC4)c23)C1 (centres unmarked) [BC33]
PDE inhibitor profile, in words [1]: PDE4 inhibitor. It also shows some activity on PDE4D3 (but not 4D2)

2 Assay (2 uM), 4A5 (PDE4A5): 12.63 | 1 Assay (20 uM) 4A5 (PDE4A5): 65.67 | 2 Assay (2 uM), 4D3 (PDE4D3): 0.00 | cAMP Response (% rolipram), 4D2 (PDE4D2): ND ND ND 11.00 ND % rolipram
SMILES: COC(=O)C1=C(C)N(c2ccccc2Cl)C(=O)/C1=C\c1cccs1 [Compound 27]
TNF alpha, % vehicle control (U937 cells; after 3 h.): 75.3% | TNF alpha, % vehicle control (U937 cells; after 20 h.): 78.3% | inhibitor class, Table 15 [1]: 27 (3)

2 Assay (2 uM), 4A5 (PDE4A5; PDE 4A5): 8.43 | 1 Assay (20 uM) 4A5 (PDE4A5; PDE 4A5): 16.94 | 2 Assay (2 uM), 4D3 (PDE4D3; PDE 4D3): ND 1.24 ND ND ND
SMILES: COc1ccc2c(c1)[C@@]1(C)CCC[C@](C)(CO)C1CC2 (some centres unmarked) [Compound 2067M03]

2 Assay (2 uM), 4A5 (PDE4A5; PDE 4A5): 7.00 | 1 Assay (20 uM) 4A5 (PDE4A5; PDE 4A5): 113.27 | 2 Assay (2 uM), 4D3 (PDE4D3; PDE 4D3): 40.17 | 1 Assay (20 uM) 4D3 (PDE4D3; 20 uM, PDE 4D3): 14.84
SMILES: Cc1ccc2c(c1)CCC1CC(=O)CC[C@]21C (some centres unmarked) [Compound 2158J12]

2 Assay (2 uM), 4A5 (PDE4A5): 13.66 | 1 Assay (20 uM) 4A5 (PDE4A5): −0.06 | 2 Assay (2 uM), 4D3 (PDE4D3): 42.32 | cAMP Response (% rolipram), 4D2 (PDE4D2): ND ND ND 34.00 ND % rolipram
SMILES: COC(=O)C1=C(C)N(C2CCCCC2)C(=O)/C1=C\c1cccs1 [Compound 22]
inhibitor class, Table 15 [1]: 22 (4)

Composite Z score, PDE4A5 (PDE4A5): 63.222 | EC50 (PDE4D3): 3.3 µM
SMILES: CCN(CC)c1ncnc2sc3c(c12)CCCC3 [BC44]
PDE inhibitor profile, in words [1]: very good PDE4 and PDE7 inhibitor, with low PDE4D inhibition

2 Assay (2 uM), 4A5 (PDE4A5): 2.79 | 1 Assay (20 uM) 4A5 (PDE4A5): 2.14 | cAMP Response, 4D2 (PDE4D2; Table 16, unit not given): ND ND ND 7.5 ND
SMILES: N#Cc1sc2sc(C#N)c(-c3ccco3)c2c1N [Compound 30]
TNF (U937 cells; 3 HOURS): 3317 pg/mL | TNF, % EtOH cntrl (U937 cells; 3 HOURS): 68.7% | TNF (U937 cells; 20 HOURS): 7481 pg/mL | TNF, % EtOH cntrl (U937 cells; 20 HOURS): 54.7% | inhibitor class, Table 16 [1]: 30 KM03472 (2)
